# In US5072002A, “Synthesis of cholesterol-lowering agents” (The Governors of the University of Alberta, priority 1989, dated 1991):
# How the values were obtained:
# [1] = administered to human beings; cited from earlier work
# [2] = based on existing biological data; cited from earlier work
# [3] = molecular target: T1, Rat Liver 3-hydroxy-3-methylglutarylcoenzyme A Reductase (Rattus norvegicus, UniProt P51639); test: Assay of HMGCoA reductase (rat liver microsomes), in vitro; type: biochemical; conditions: 20 min, 37° C., DMSO control 652, none 1254
# T1 construct: rat liver microsome (75 μg protein); from tissue; host or cells: rat liver microsomes
# T1 sequence (P51639 1-887): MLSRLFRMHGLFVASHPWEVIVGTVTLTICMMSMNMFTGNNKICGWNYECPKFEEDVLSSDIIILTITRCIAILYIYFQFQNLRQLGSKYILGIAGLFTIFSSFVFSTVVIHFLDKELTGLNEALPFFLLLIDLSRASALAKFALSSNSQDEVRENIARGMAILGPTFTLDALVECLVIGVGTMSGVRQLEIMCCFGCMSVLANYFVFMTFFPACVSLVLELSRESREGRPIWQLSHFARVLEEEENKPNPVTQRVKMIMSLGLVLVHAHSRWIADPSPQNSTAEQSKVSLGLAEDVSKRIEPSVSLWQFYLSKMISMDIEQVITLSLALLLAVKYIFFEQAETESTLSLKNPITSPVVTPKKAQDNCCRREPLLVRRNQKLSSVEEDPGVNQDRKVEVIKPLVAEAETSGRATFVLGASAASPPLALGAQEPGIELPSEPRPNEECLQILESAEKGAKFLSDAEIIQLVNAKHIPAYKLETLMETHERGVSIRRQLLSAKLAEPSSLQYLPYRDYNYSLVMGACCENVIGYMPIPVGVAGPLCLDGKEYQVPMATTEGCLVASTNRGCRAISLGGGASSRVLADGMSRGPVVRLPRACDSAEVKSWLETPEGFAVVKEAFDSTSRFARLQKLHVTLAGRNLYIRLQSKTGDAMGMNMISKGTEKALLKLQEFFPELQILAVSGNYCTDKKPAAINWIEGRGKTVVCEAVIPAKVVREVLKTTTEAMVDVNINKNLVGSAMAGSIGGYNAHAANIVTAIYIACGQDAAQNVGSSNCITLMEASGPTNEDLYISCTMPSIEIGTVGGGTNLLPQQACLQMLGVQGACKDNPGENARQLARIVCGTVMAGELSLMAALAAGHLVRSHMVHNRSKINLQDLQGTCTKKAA
# Description: Ethylcompactin and mevinolin were dissolved in DMSO. Aliquots (10 μl) of each were incubated with 50 μl of 50 mM Pot. phosphate pH 7.4, 70 mM KCl, 30 mM EDTA, 10 mM DTT for 30 min at 37° C. to delactonize the compounds. Control incubations were done with 10 μL DMSO.
# Assay of HMGCoA reductase was carried out as described by George and Ramasarma, [George R., Ramasarma, T., Biochem. J. (1977) 162:493-499]. At the end of 30 min, incubation for […], rat liver microsome (75 μg protein) were added to each tube along with glucose-6-phosphate (577 μM) glucose-6-phosphate dehydrogenase (0.05 unit/assay) and MADPH ([…]) and incubated for an additional 10 min at 37° C.
# HMGCoA reductase reaction was initiated by the additon of 3-^14 C-HMGCoA ([…], final) and carried out for 20 min at 37° C. in a total volume of 100 μl. The reaction was terminated by the addition of 5N HCl (25 μl) containing known amounts of ^3 -H-Mevalonolactone as internal standard and non-radioactive mevalonolactone (0.6 mg/assay) as carrier. Mevalonic acid formed in the assay was allowed to lactonize by incubating the mixture for 30 min at 37° C. The precipitated protein was removed by centrifugation in a microfuge. An aliquot of the supernatant (40 μl) was applied on silica gel G (0.25 mm thickness) plates and the chromatogram developed with Acetone:Benzene (3:2). The spot corresponding to the mevalonolactone (Rf 0.5) was scraped off and the radioactivity estimated by liquid scintillation counting. Mevalonic acid formed was calcualted from the recovery of internal standard. Microsomal protein was estimated by the method of Lowry [J. Biol. Chem. (1951) 193:265-275 ] after precipitation according to Bensadoun and Weinstein [Anal. Biochem. (1976) 70:241-250]. The specific activity of HMGCoA reductase is expressed as p moles of mevalonic acid formed per minute per mg of microsomal protein.
# [4] = 100 nM in assay (in 10 μl DMSO)
SMILES,concentration in the blood of LDL cholesterol [1],activity in lowering LDL cholesterol levels as compared to Compactin [2],HMGCoA Reductase Activity ([3]; 1 nM in assay (in 10 μl DMSO)),"HMGCoA Reductase Activity [3, 4]",HMGCoA Reductase Activity ([3]; 1 μM in assay (in 10 μl DMSO)),HMGCoA Reductase Activity ([3]; 10 μM in assay (in 10 μl DMSO))
"CC[C@H](C)C(=O)O[C@H]1CCC=C2C=C[C@H](C)[C@H](CC[C@@H]3C[C@@H](O)CC(=O)O3)[C@H]21 [Compactin, (+)-Compactin]",reduced,–,–,–,–,–
"CC[C@H](C)C(=O)O[C@H]1C[C@@H](C)C=C2C=C[C@H](C)[C@H](CC[C@@H]3C[C@@H](O)CC(=O)O3)[C@H]21 [Mevinolin, (+)-Mevinolin]",reduced,several times more active,609 pmol Mevalonate formed/min/mg,303 pmol Mevalonate formed/min/mg,113 pmol Mevalonate formed/min/mg,52 pmol Mevalonate formed/min/mg
"CC[C@H]1C=C2C=C[C@H](C)[C@H](CC[C@@H]3C[C@@H](O)CC(=O)O3)[C@H]2[C@@H](OC(=O)[C@@H](C)CC)C1 [Ethyl Compactin, (+)-3-Ethylcompactin]",–,–,730 pmol Mevalonate formed/min/mg,361 pmol Mevalonate formed/min/mg,182 pmol Mevalonate formed/min/mg,20 pmol Mevalonate formed/min/mg
